Experimental data published in patent US8759537B2, “3H-imidazo [4, 5-C] pyridine-6-carboxamides as anti-inflammatory agents” (Boehringer Ingelheim International GmbH, priority 2010, dated 2014).
pIC50: −log10 of the molar value.

Target: mPGES-1 (Homo sapiens (Human), UniProt O14684)
Assay: A549 cell-based assay (PGE2 formation, IL-1β stimulated, 50% human serum)
Conditions: A549 cells, IL-1β 5 ng/ml, read-out: mPGES-1 inhibitory effect in the cell assay, IC50
Method: Although the enzymatic assay is a high throughput assay the disadvantage is that it uses a recombinant protein which is not in its natural environment. Accordingly a cellular assay was established in which a cell line of human origin (A549) expressing the mPGES-1 protein was used. In addition in order to mimic the situation in humans in which compounds can be bound to plasma proteins 50% human serum is added in the assay.
Cells were detached using Trypsin-EDTA. A549 cells were seeded in a 384-well collagene plate at a density of 7000 cells/well (50 μl) in F-12 medium containing 1% Penicillin-Streptomycin and 50% human serum. The cells were allowed to attach for 3-4 h. […] The total volume is 100 μl.
Concentrations of PGE2 in the cell free medium (10 μl) were measured using a commercially available HTRF kit from Cisbio (as described above). The PGE2 formation in the absence of test compound was taken as 100%.
IC50 values were derived from at 6-8 point titrations using conventional software.

mPGES-1, sequence (O14684 whole entry): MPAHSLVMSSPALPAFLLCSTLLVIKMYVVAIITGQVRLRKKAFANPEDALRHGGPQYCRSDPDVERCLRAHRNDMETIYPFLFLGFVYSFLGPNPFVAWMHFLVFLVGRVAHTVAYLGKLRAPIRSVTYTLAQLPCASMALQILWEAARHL

Compound | pIC50
Cn1c(Nc2c(Cl)ccc(CNC(=O)C(C)(C)O)c2Cl)nc2cc(C(=O)NCC(F)(F)F)c(OCC(F)F)cc21 [Example 108] | 7.23
CC(C)C(=O)NCc1ccc(Cl)c(Nc2nc3cc(C(=O)NCC(F)(F)F)c(OCC(F)F)cc3n2C)c1Cl [Example 110] | 8.10
Cn1c(Nc2c(Cl)ccc(CNC(=O)C(F)F)c2Cl)nc2cc(C(=O)Nc3ccc(F)c(Cl)c3)c(OCC(F)F)cc21 [Example 159] | 9.00
COC(C)(C)C(=O)NCc1ccc(Cl)c(Nc2nc3cc(C(=O)Nc4ccc(F)c(Cl)c4)c(OCC(F)F)cc3n2C)c1Cl [Example 135] | > 9.00
COC(C)(C)C(=O)NCc1ccc(Cl)c(Nc2nc3cc(C(=O)NCC(F)(F)F)c(OCC(F)F)cc3n2C)c1Cl [Example 130] | 8.52
CC(C)(C)C(=O)NCc1ccc(Cl)c(Nc2nc3c(F)c(OCC(F)(F)F)c(C(=O)N[C@H]4CC[C@H](C(F)(F)F)CC4)cc3[nH]2)c1Cl [Example 79] | 9.00
COCC(=O)NCc1ccc(Cl)c(Nc2nc3cc(C(=O)NCC(F)(F)F)c(OCC(F)F)cc3n2C)c1Cl [Example 101] | 7.96
CCCC(=O)NCc1ccc(Cl)c(Nc2nc3cc(C(=O)Nc4ccc(F)c(Cl)c4)c(OCC(F)F)cc3n2C)c1Cl [Example 132] | 8.70
Cn1c(Nc2c(Cl)ccc(CNC(=O)C(O)C(F)(F)F)c2Cl)nc2cc(C(=O)Nc3ccc(F)c(Cl)c3)c(OCC(F)F)cc21 (stereo not shown) [Example 161] | 8.70
C[C@H](O)C(=O)NCc1ccc(Cl)c(Nc2nc3cc(C(=O)NCC(F)(F)F)c(OCC(F)F)cc3n2C)c1Cl [Example 109] | 7.24
Cn1c(Nc2c(Cl)ccc(CNC(=O)CC3CC3)c2Cl)nc2cc(C(=O)Nc3ccc(F)c(Cl)c3)c(OCC(F)F)cc21 [Example 144] | 8.70
COCC(=O)NCc1ccc(Cl)c(Nc2nc3cc(C(=O)Nc4ccc(F)c(Cl)c4)c(OCC(F)F)cc3n2C)c1Cl [Example 163] | 8.30
CCC(=O)NCc1ccc(Cl)c(Nc2nc3cc(C(=O)NCC(F)(F)F)c(OCC(F)F)cc3n2C)c1Cl [Example 111] | 8.15
Cn1c(Nc2c(Cl)ccc(CNC(=O)c3cc[nH]n3)c2Cl)nc2cc(C(=O)Nc3ccc(F)c(Cl)c3)c(OCC(F)F)cc21 [Example 134] | 8.10
Cn1c(Nc2c(Cl)ccc(CNC(=O)c3sccc3Cl)c2Cl)nc2cc(C(=O)Nc3ccc(F)c(Cl)c3)c(OCC(F)F)cc21 [Example 168] | > 9.00
Cn1c(Nc2c(Cl)ccc(CNC(=O)C(O)C(F)(F)F)c2Cl)nc2cc(C(=O)NCC(F)(F)F)c(OCC(F)F)cc21 (stereo not shown) [Example 96] | 7.85
Cn1c(Nc2c(Cl)ccc(CNC(=O)C3(C#N)CC3)c2Cl)nc2cc(C(=O)NCC(F)(F)F)c(OCC(F)F)cc21 [Example 113] | 7.60
Cn1c(Nc2c(Cl)ccc(CNC(=O)C(C)(C)CO)c2Cl)nc2cc(C(=O)Nc3ccc(F)c(Cl)c3)c(OCC(F)F)cc21 [Example 155] | 8.70
Cn1ccnc1C(=O)NCc1ccc(Cl)c(Nc2nc3cc(C(=O)Nc4ccc(F)c(Cl)c4)c(OCC(F)F)cc3n2C)c1Cl [Example 156] | 8.00
Cn1c(Nc2c(Cl)ccc(CNC(=O)C3(O)CC3)c2Cl)nc2cc(C(=O)NCC(F)(F)F)c(OCC(F)F)cc21 [Example 93] | 7.18
Cn1c(Nc2c(Cl)ccc(CNC(=O)CO)c2Cl)nc2cc(C(=O)Nc3ccc(F)c(Cl)c3)c(OCC(F)F)cc21 [Example 139] | 7.57
CC(O)C(=O)NCc1ccc(Cl)c(Nc2nc3cc(C(=O)Nc4ccc(F)c(Cl)c4)c(OCC(F)F)cc3n2C)c1Cl (stereo not shown) [Example 147] | 8.40
Cn1c(Nc2c(Cl)ccc(CNC(=O)C(C)(F)F)c2Cl)nc2cc(C(=O)Nc3ccc(F)c(Cl)c3)c(OCC(F)F)cc21 [Example 162] | > 9.00
Cc1nc(C)c(C(=O)NCc2ccc(Cl)c(Nc3nc4cc(C(=O)Nc5ccc(F)c(Cl)c5)c(OCC(F)F)cc4n3C)c2Cl)s1 [Example 138] | 7.31
Cn1cccc1C(=O)NCc1ccc(Cl)c(Nc2nc3cc(C(=O)Nc4ccc(F)c(Cl)c4)c(OCC(F)F)cc3n2C)c1Cl [Example 142] | 8.60
Cn1c(Nc2c(Cl)ccc(CNC(=O)C3CCCC3)c2Cl)nc2cc(C(=O)Nc3ccc(F)c(Cl)c3)c(OCC(F)F)cc21 [Example 160] | > 9.00
Cn1c(Nc2c(Cl)ccc(CNC(=O)C(C)(N)C(F)(F)F)c2Cl)nc2cc(C(=O)Nc3ccc(F)c(Cl)c3)c(OCC(F)F)cc21 (stereo not shown) [Example 152] | > 9.00
Cn1c(Nc2c(Cl)ccc(CNC(=O)C(C)(C)C(F)(F)F)c2Cl)nc2cc(C(=O)Nc3ccc(F)c(Cl)c3)c(OCC(F)F)cc21 [Example 176] | > 9.00

Compound | pIC50
Cn1c(Nc2c(Cl)ccc(CNC(=O)C3(C(F)(F)F)CCCC3)c2Cl)nc2cc(C(=O)Nc3ccc(F)c(Cl)c3)c(OCC(F)F)cc21 [Example 165] | > 9.00
Cn1c(Nc2c(Cl)ccc(CNC(=O)C3CCCO3)c2Cl)nc2cc(C(=O)NCC(F)(F)F)c(OCC(F)F)cc21 (stereo not shown) [Example 90] | 7.44
Cn1c(Nc2c(Cl)ccc(CNC(=O)C3CC3)c2Cl)nc2cc(C(=O)Nc3ccc(F)c(Cl)c3)c(OCC(F)F)cc21 [Example 148] | 8.70
Cn1c(Nc2c(Cl)ccc(CNC(=O)C3CCC3)c2Cl)nc2cc(C(=O)Nc3ccc(F)c(Cl)c3)c(OCC(F)F)cc21 [Example 172] | 8.70
Cn1c(Nc2c(Cl)ccc(CNC(=O)C3CC(F)(F)C3)c2Cl)nc2cc(C(=O)Nc3ccc(F)c(Cl)c3)c(OCC(F)F)cc21 [Example 167] | 8.22
Cn1c(Nc2c(Cl)ccc(CNC(=O)C(C)(C)CO)c2Cl)nc2cc(C(=O)NCC(F)(F)F)c(OCC(F)F)cc21 [Example 126] | 7.14
Cn1c(Nc2c(Cl)ccc(CNC(=O)C(C)(C)C)c2Cl)nc2cc(C(=O)Nc3ccc(F)c(Cl)c3)c(OCCF)cc21 [Example 177, N-(3-Chloro-4-fluoro-phenyl)-2-{2,6-dichloro-3-[(2,2-dimethyl-propionylamino)-methyl]-phenylamino}-6-(2-fluoroethoxy)-1-methyl-1H-benzimidazole-5-carboxylic acid amide] | > 9.00
CCC(=O)NCc1ccc(Cl)c(Nc2nc3cc(C(=O)Nc4ccc(F)c(Cl)c4)c(OCC(F)F)cc3n2C)c1Cl [Example 146] | 8.70
Cn1c(Nc2c(Cl)ccc(CNC(=O)c3ccno3)c2Cl)nc2cc(C(=O)Nc3ccc(F)c(Cl)c3)c(OCC(F)F)cc21 [Example 166] | 8.15
Cn1c(Nc2c(Cl)ccc(CNC(=O)C3(C(F)(F)F)CC3)c2Cl)nc2cc(C(=O)Nc3ccc(F)c(Cl)c3)c(OCC(F)F)cc21 [Example 174] | > 9.00
CC(C)(C)C(=O)NCc1ccc(Cl)c(Nc2nc3cc(OC(F)F)c(C(=O)N[C@H]4CC[C@H](C(F)(F)F)CC4)cc3[nH]2)c1Cl [Example 78] | 8.10
Cn1c(Nc2c(Cl)ccc(CNC(=O)C3(C)COC3)c2Cl)nc2cc(C(=O)Nc3ccc(F)c(Cl)c3)c(OCC(F)F)cc21 [Example 150] | 9.00
Cn1c(Nc2c(Cl)ccc(CNC(=O)C3CC3)c2Cl)nc2cc(C(=O)NCC(F)(F)F)c(OCC(F)F)cc21 [Example 100] | 7.28
Cn1c(Nc2c(Cl)ccc(CNC(=O)c3c(F)cccc3Cl)c2Cl)nc2cc(C(=O)Nc3ccc(F)c(Cl)c3)c(OCC(F)F)cc21 [Example 158] | > 9.00
Cn1c(Nc2c(Cl)ccc(CNC(=O)C(C)(N)C(F)(F)F)c2Cl)nc2cc(C(=O)NCC(F)(F)F)c(OCC(F)F)cc21 (stereo not shown) [Example 98] | 8.70
Cn1c(Nc2c(Cl)ccc(CNC(=O)CC3CC3)c2Cl)nc2cc(C(=O)NCC(F)(F)F)c(OCC(F)F)cc21 [Example 88] | 7.17
Cn1c(Nc2c(Cl)ccc(CNC(=O)C(C)(C)C)c2Cl)nc2cc(C(=O)Nc3cccc(C#N)c3)c(OCC(F)F)cc21 [Example 28] | 9.00
Cn1c(Nc2c(Cl)ccc(CNC(=O)C3(C)CCCO3)c2Cl)nc2cc(C(=O)Nc3ccc(F)c(Cl)c3)c(OCC(F)F)cc21 (stereo not shown) [Example 170] | > 9.00
Cn1c(Nc2c(Cl)ccc(CNC(=O)C(C)(C)C)c2Cl)nc2cc(C(=O)Nc3ccc(Br)cc3)c(F)cc21 [Example 7] | 9.00
Cn1c(Nc2c(Cl)ccc(CNC(=O)C3(C#N)CC3)c2Cl)nc2cc(C(=O)Nc3ccc(F)c(Cl)c3)c(OCC(F)F)cc21 [Example 145] | 8.15
Cn1c(Nc2c(Cl)ccc(CNC(=O)c3cc(C(F)(F)F)n[nH]3)c2Cl)nc2cc(C(=O)Nc3ccc(F)c(Cl)c3)c(OCC(F)F)cc21 [Example 136] | 7.77
Cn1c(Nc2c(Cl)ccc(CNC(=O)CC(F)(F)F)c2Cl)nc2cc(C(=O)NCC(F)(F)F)c(OCC(F)F)cc21 [Example 128] | 7.59
CC(C)C(=O)NCc1ccc(Cl)c(Nc2nc3cc(C(=O)Nc4ccc(F)c(Cl)c4)c(OCC(F)F)cc3n2C)c1Cl [Example 151] | 9.00
Cn1c(Nc2c(Cl)ccc(CNC(=O)C3(C(F)(F)F)CCC3)c2Cl)nc2cc(C(=O)NCC(F)(F)F)c(OCC(F)F)cc21 [Example 86] | > 9.00
Cn1c(Nc2c(Cl)ccc(CNC(=O)CC#N)c2Cl)nc2cc(C(=O)Nc3ccc(F)c(Cl)c3)c(OCC(F)F)cc21 [Example 154] | 7.44
Cn1c(Nc2c(Cl)ccc(CNC(=O)c3ccno3)c2Cl)nc2cc(C(=O)NCC(F)(F)F)c(OCC(F)F)cc21 [Example 107] | 6.97
CC(C(=O)NCc1ccc(Cl)c(Nc2nc3cc(C(=O)Nc4ccc(F)c(Cl)c4)c(OCC(F)F)cc3n2C)c1Cl)C(F)(F)F (stereo not shown) [Example 141] | > 9.00
